Assays:
[1] = Stability of the mixed composition by decoloration (absorbance at 400 nm); assay type: physicochemical; details: for Absorbance (400 nm): 100 mM, reacted 37° C. 10 minutes pH 5.0, TCA, supernatant incubated at 37° C. for 24 hours; for Discoloration rate (% of decoloring of hydroquinone solution): hydroquinone solution regarded as 100%, 37° C. for 24 hours
Method: The absorbency was measured at 400 nm and the degree of discoloring can be expressed in the ratio of the extent of arbutin solution to that of hydroquinone solution.
The formula stability of arbutin-glucosidase mixed formula compared with the hydroquinone only formula was examined by the decoloration. 100 mM arbutin and each 1, 10 and 20 unit/ml glucosidase were reacted in 1 ml of sodium acetate buffer (pH 5.0) at 37° C. for 10 minutes. The reaction was terminated by cooling down in the ice water. Then its mixed 1 ml of cold 20% Trichloroacetic acid (TCA) was added to remove glucosidase activity. The mixture was centrifuged at 12000 rpm. The supernatant solution incubated at 37° C. for 24 hours and the absorbency was measured at […]. The degree of decoloration of hydroquinone was regarded as 100% and the ratio of other samples compared to hydroquinone were calculated. As the control, 100 mM arbutin and 100 mM hydroquinone solution (sigma, USA) was used.

[2] = test system: skin of the lower part of the volunteers' arms; test: Occlusive patch test for primary skin irritation; assay type: in vivo, human; parameters: Response 24 h / Response 48 h: key to the marks not given beside the values; details: for skin irritation (in words): occlusive patch test
Method: In another preferred embodiments of this invention, the safety of this composition was tested by skin-irritation against the occlusive patch applied to healthy-adult volunteers. […] It is interpreted that the skin is more adaptable to the gradually increasing amount of irritant than the high concentration of irritant at a time.
The occlusive patch test was performed to examine skin irritation of the mixture of arbutin and glucosidase by 30 healthy adults. The test patches containing the solution of arbutin and glucosidase of preferred embodiment 2 were applied to the lower part of the volunteers' arms. After 24 hours, the patches were removed. The status of skin was observed from 30 minutes to 48 hours after removing the patches, and the degree of irritation has been classified as described in Table 3a.

Absorbance (400 nm) [1] | Discoloration rate (% of decoloring of hydroquinone solution) [1] [%] | SMILES | skin irritation (in words) [2] | skin irritation (in words) ([2]; listed as hydroquinone composition) | Response 24 h ([2]; occlusive patch, 30 healthy adults, 24 h) | Response 48 h ([2]; occlusive patch, 30 healthy adults, 48 h)
0.005 | 1.40 | OC[C@H]1O[C@@H](Oc2ccc(O)cc2)[C@H](O)[C@@H](O)[C@@H]1O [Arbutin solution, Arbutin] | – | – | – | –
0.356 | 100 | Oc1ccc(O)cc1 [Hydroquinone solution, Hydroquinone] | very strong skin irritation | showed the positive irritation | +++ | +++
